{"source": "patent US8975293B2", "about": "“Epigenetic co-repressors of the gamma-globin gene and methods of using same” (Regents of the University of Michigan, priority 2011, dated 2015)", "key": {"[1]": {"tested_on": "primary human erythroid cells", "test": "Hemoglobin analysis by HPLC, HbF synthesis", "type": "cell-based", "conditions": "day 14, average, untreated control 4.6%", "procedure": "(§1) Cryopreserved vials of purified human CD34+ cells, which were isolated from peripheral blood of healthy donors after mobilization with granulocyte colony-stimulating factor, were purchased from the Fred Hutchinson Cancer Research Center. The cells were grown and differentiated ex vivo into the erythroid lineage in 14 days by a two-phase culture method reported previously (Cui et al., 2011, Mol. Cell. Biol., 31:3298-3311; Giarratana et al., 2005, Nat. Biotechnol., 23:69-74). […] Cell morphology was examined by staining cytospins with a Wright-Giemsa stain (Sigma-Aldrich). Hemoglobin synthesis was examined by acid benzidine staining as previously described (Orkin et al., 1975, PNAS USA, 72:98-102).\nCells were lysed and analyzed for hemoglobin composition by the B10-Rad Variant II Hemoglobin Testing System equipped with an ion-exchange HPLC column (Hercules). Averages of three to five biological replicates are presented.\n(§2) A pLKO.1-puro lentiviral vector to express the LSD1 shRNA and a puromycin resistance gene was purchased from Sigma-Aldrich (TRCN0000046070), and the control empty vector was generated by removing a region (between EcoRI and NdeI sites) containing the hairpin sequence. Lentiviral particles were generated by transfecting the vectors into a packaging cell line. Cells were exposed to the viruses on day 4 of the culture for 24 hours, and then to 1 μg/ml puromycin on day 6 through day 14 for selection of infected cells."}, "[2]": {"tested_on": "primary human erythroid cells", "conditions": "0.5, 1.5 or 5 μM", "procedure": "as §1\nFor cell surface marker analysis, cells were stained with phycoerythrin (PE)-Cy7-conjugated anti-CD34 (eBioscience), PE-conjugated anti-CD71 (eBioscience), and PE-Cy5-conjugated antiglycophorin A (BD Biosciences) antibodies. For cytoplasmic HbF analysis, cells were fixed in 0.05% glutaraldehyde for 10 min, permeabilized in 0.1% Triton X-100 for 5 min, and then stained with allophycocyanin-conjugated anti-HbF antibody (Invitrogen). Stained cells were analyzed with the FACSCanto II (BD Biosciences)."}, "gamma-globin promoter": {"tested_on": "gamma-globin promoter", "conditions": "day 11", "procedure": "as §1"}, "[3]": {"tested_on": "H3K4 demethylase activity of LSD1", "conditions": "differentiating erythroid cells, normalized to untreated cells", "procedure": "as §1"}, "fetal gamma-globin mRNA": {"tested_on": "fetal gamma-globin mRNA", "type": "cell-based, human", "conditions": "TC treatment, by day 14", "procedure": "as §1\nExpression of the genes for human gamma- and beta-globins, LSD1, mouse alpha-globin, and 18S rRNA was determined by RT-qPCR assay as described previously (Cui et al., supra). The abundance of each transcript was calculated based on the threshold cycle value and the amplification efficiency, experimentally determined for each primer pair, and then normalized to the abundance of 18S rRNA transcript as an internal control. All the primer pairs except for 18S rRNA were designed to span introns. […]"}, "human gamma-globin gene": {"tested_on": "human gamma-globin gene", "conditions": "3 or 10 mg/kg per day s.c., 5 days a week for 4 weeks; dose dependent", "procedure": "(§3) Expression of the genes for human gamma- and beta-globins, LSD1, mouse alpha-globin, and 18S rRNA was determined by RT-qPCR assay as described previously (Cui et al., supra). The abundance of each transcript was calculated based on the threshold cycle value and the amplification efficiency, experimentally determined for each primer pair, and then normalized to the abundance of 18S rRNA transcript as an internal control. All the primer pairs except for 18S rRNA were designed to span introns.\n(§4) Control mice were injected with saline only. After 4 weeks of injections, bone marrow cells were harvested for RTqPCR analysis for expression of the genes for human gamma- and beta-globins, and mouse alpha-globin as an internal control. Three or four mice were used for each experimental condition."}, "Human beta-globin gene": {"tested_on": "Human beta-globin gene", "conditions": "3 or 10 mg/kg per day s.c., 5 days a week for 4 weeks", "procedure": "as §3, §4"}, "[4]": {"conditions": "3 or 10 mg/kg per day s.c., 5 days a week for 4 weeks", "procedure": "as §4"}, "[5]": {"tested_on": "primary human erythroid cells", "test": "Proliferation and viability of differentiating erythroid cells, trypan blue count", "type": "cell-based", "conditions": "day 4 through day 14", "procedure": "as §1, §2"}}}
{"smiles": "N[C@@H]1C[C@H]1c1ccccc1", "note": "(racemic) [TC, Tranylcypromine]", "values": [{"measurement": "HbF, % of total hemoglobin (HPLC)", "setting": "[1]; 0.5 μM", "value": 13, "unit": "%"}, {"measurement": "HbF, % of total hemoglobin (HPLC)", "setting": "[1]; 1.5 μM", "value": 20, "unit": "%"}, {"measurement": "HbF, % of total hemoglobin (HPLC)", "setting": "[1]; 5 μM", "value": 31, "unit": "%"}, {"measurement": "cell population positive for both CD71 and GPA", "setting": "[2]", "value": "slight to moderate reduction"}, {"measurement": "HbF inductive effect by flow cytometry", "setting": "[2]; day 14", "value": "both pancellular and dose-dependent"}, {"measurement": "H3K4 dimethylation at the gamma-globin promoter", "setting": "gamma-globin promoter", "value": "enhanced H3K4 dimethylation"}, {"measurement": "global H3K4 dimethylation", "setting": "[3]", "value": "enhanced global H3K4 dimethylation in a dose dependent manner"}, {"measurement": "induction of fetal gamma-globin mRNA", "setting": "fetal gamma-globin mRNA", "value": "up to 9.4 fold"}, {"measurement": "induction of human gamma-globin gene expression in bone marrow cells vs control mice", "setting": "human gamma-globin gene", "value": "about 3 fold"}, {"measurement": "human beta-globin gene expression in bone marrow cells", "setting": "Human beta-globin gene", "value": "not significantly affected"}, {"measurement": "activity of the mice (anecdotal observation)", "setting": "[4]", "value": "much more active"}, {"measurement": "signs of toxic effects on hematological or other systems", "setting": "[4]", "value": "did not exhibit any signs of toxic effects"}, {"measurement": "tolerability", "setting": "[4]", "value": "well tolerated"}, {"measurement": "cell proliferation", "setting": "[5]; 0.5 μM", "value": "did not affect"}, {"measurement": "cell viability", "setting": "[5]; 0.5 μM", "value": "did not affect"}, {"measurement": "cell proliferation", "setting": "[5]; 1.5 μM", "value": "did not affect"}, {"measurement": "cell viability", "setting": "[5]; 1.5 μM", "value": "did not affect"}, {"measurement": "cell proliferation", "setting": "[5]; 5 μM", "value": "reduced cell proliferation"}, {"measurement": "cell viability", "setting": "[5]; 5 μM", "value": "without affecting viability"}]}
